According to ChEMBL document CHEMBL3817831, “Ionophoric polyphenols selectively bind Cu(2+), display potent antioxidant and anti-amyloidogenic properties, and are non-toxic toward Tetrahymena thermophila” (Bioorg Med Chem, 2016):
Calls of active or inactive are those of the source. The calls are words filed in the database; no cut-off is given here.

Columns and labels:
[1] = Ratio of ascorbic acid IC50 to compound IC50 for DPPH free radical scavenging activity
[2] = biological target: Amyloid-beta precursor protein (Homo sapiens) (UniProt P05067); experiment: Binding affinity to amyloid beta (1 to 40) (unknown origin) by tyrosine fluorimetric titration assay
Sequence of Amyloid-beta precursor protein (Homo sapiens) (P05067 whole entry): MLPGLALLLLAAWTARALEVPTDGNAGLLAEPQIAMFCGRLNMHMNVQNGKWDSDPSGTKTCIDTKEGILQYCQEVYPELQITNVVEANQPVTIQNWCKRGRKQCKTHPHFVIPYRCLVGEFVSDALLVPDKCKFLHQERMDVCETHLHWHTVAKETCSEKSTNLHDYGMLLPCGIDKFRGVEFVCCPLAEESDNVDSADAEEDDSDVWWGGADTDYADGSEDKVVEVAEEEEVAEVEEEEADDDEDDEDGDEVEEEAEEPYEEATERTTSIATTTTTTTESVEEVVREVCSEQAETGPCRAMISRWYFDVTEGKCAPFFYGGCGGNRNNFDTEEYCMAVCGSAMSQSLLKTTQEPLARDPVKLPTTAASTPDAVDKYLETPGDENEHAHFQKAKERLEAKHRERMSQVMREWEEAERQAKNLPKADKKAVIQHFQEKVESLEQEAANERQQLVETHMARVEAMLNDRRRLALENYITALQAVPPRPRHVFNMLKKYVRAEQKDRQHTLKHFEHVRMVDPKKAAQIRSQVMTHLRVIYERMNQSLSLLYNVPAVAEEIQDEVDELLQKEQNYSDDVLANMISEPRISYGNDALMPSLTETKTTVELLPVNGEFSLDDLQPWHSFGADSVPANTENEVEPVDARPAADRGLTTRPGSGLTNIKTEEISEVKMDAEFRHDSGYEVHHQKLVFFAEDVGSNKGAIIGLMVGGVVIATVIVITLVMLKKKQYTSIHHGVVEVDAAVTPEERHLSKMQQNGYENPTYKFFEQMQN

[3] = Inhibition of Cu2+-induced amyloid beta (1 to 40) aggregation at 100 uM preincubated for 5 mins followed by amyloid beta (1 to 40) addition measured after 18 days at pH 6.60 by thioflavin-T fluorescence assay
[4] = Binding affinity to Cu2+ using CuCl2 after 5 mins by spectrophotometry
[5] = Induction of Cu2+-induced amyloid beta (1 to 40) fibril aggregation at 100 uM preincubated for 5 mins followed by amyloid beta (1 to 40) addition measured after 3 to 7 days by turbidity assay
[6] = Ratio of resveratrol IC50 to compound IC50 for AAPH radical scavenging activity
[7] = biological target: Amyloid-beta precursor protein (Homo sapiens) (UniProt P05067); experiment: Inhibition of preformed self-induced amyloid beta (1 to 40) (unknown origin) fibril aggregation assessed as remaining fibril aggregates at 100 uM after 12 days at pH 6.60 by thioflavin-T fluorescence assay
[8] = Inhibition of Cu2+-induced amyloid beta (1 to 40) fibril aggregation at 100 uM preincubated for 5 mins followed by amyloid beta (1 to 40) addition measured after 18 days by turbidity assay
[9] = Inhibition of Cu2+-induced amyloid beta (1 to 40) fibril aggregation assessed as remaining fibril aggregates at 100 uM preincubated for 5 mins followed by amyloid beta (1 to 40) addition measured after 3 days at pH 6.60 by thioflavin-T fluorescence assay
[10] = Inhibition of Cu2+-induced amyloid beta (1 to 40) fibril aggregation assessed as remaining fibril aggregates at 100 uM preincubated for 5 mins followed by amyloid beta (1 to 40) addition measured after 7 days at pH 6.60 by thioflavin-T fluorescence assay
[11] = Inhibition of preformed Cu2+-induced amyloid beta (1 to 40) fibril aggregation at 100 uM after 4 to 12 days by turbidity assay relative to control
[12] = Antioxidant activity assessed as DPPH free radical scavenging activity after 30 mins by spectrophotometry; format: physicochemical
[13] = Binding affinity to Fe2+ using FeCl2 at 20 uM after 5 mins by spectrophotometry
[14] = biological target: Amyloid-beta precursor protein (Homo sapiens) (UniProt P05067); experiment: Inhibition of self-induced amyloid beta (1 to 40) (unknown origin) fibril aggregation assessed as remaining fibril aggregates at 100 uM after 7 days at pH 6.60 by thioflavin-T fluorescence assay
[15] = Binding affinity to Cu2+ using CuCl2 at 20 uM after 5 mins by spectrophotometric titration assay
[16] = Binding affinity to Zn2+ using ZnCl2 at 20 uM after 5 mins by spectrophotometry
[17] = Antioxidant activity assessed as AAPH radical scavenging activity preincubated for 30 mins followed by AAPH addition measured after 60 mins by ORAC assay; format: physicochemical
[18] = Inhibition of Cu2+-amyloid beta (1 to 40) catalyzed generation of hydroxyl radical assessed as rate of radical formation per min at 2 equiv preincubated for 1 hr followed by CCA addition measured over 60 mins by CCA based fluorescence assay (reference value: 13 +/- 0.2 a.u.)
[19] = Inhibition of Cu2+-amyloid beta (1 to 40) catalyzed generation of hydroxyl radical assessed as 7-hrdroxy-CCA formation at 2 equiv preincubated for 1 hr followed by CCA addition measured over 60 mins by fluorescence assay
[20] = biological target: Amyloid-beta precursor protein (Homo sapiens) (UniProt P05067); experiment: Inhibition of self-induced amyloid beta (1 to 40) (unknown origin) fibril aggregation assessed as remaining fibril aggregates at 100 uM after 3 days at pH 6.60 by thioflavin-T fluorescence assay
[21] = biological target: Amyloid-beta precursor protein (Homo sapiens) (UniProt P05067); experiment: Induction of self-induced amyloid beta (1 to 40) (unknown origin) fibril aggregation at 100 uM after 3 days by turbidity assay
[22] = biological target: Amyloid-beta precursor protein (Homo sapiens) (UniProt P05067); experiment: Inhibition of preformed self-induced amyloid beta (1 to 40) (unknown origin) fibril aggregation assessed as remaining fibril aggregates at 100 uM after 4 days at pH 6.60 by thioflavin-T fluorescence assay
[23] = Binding affinity to Ca2+ using CaCl2 at 20 uM after 5 mins by spectrophotometry
[24] = Toxicity in Tetrahymena thermophila assessed as reduction in cell viability after 48 hrs by MTT assay; format: organism-based; conditions: Tetrahymena thermophila cells, read-out: LD50
[25] = biological target: Amyloid-beta precursor protein (Homo sapiens) (UniProt P05067); experiment: Inhibition of preformed self-induced amyloid beta (1 to 40) (unknown origin) fibril aggregation at 100 uM after 12 days by turbidity assay relative to control
[26] = Inhibition of preformed Cu2+-induced amyloid beta (1 to 40) fibril aggregation assessed as remaining fibril aggregates at 100 uM after 4 days at pH 6.60 by thioflavin-T fluorescence assay
[27] = biological target: Amyloid-beta precursor protein (Homo sapiens) (UniProt P05067); experiment: Induction of preformed self-induced amyloid beta (1 to 40) (unknown origin) fibril aggregation at 100 uM after 4 days by turbidity assay
[28] = Ratio of resveratrol IC50 to compound IC50 for DPPH free radical scavenging activity
[29] = Inhibition of preformed Cu2+-induced amyloid beta (1 to 40) fibril aggregation assessed as remaining fibril aggregates at 100 uM after 12 days at pH 6.60 by thioflavin-T fluorescence assay
[30] = Binding affinity to Mn2+ using MnCl2 at 20 uM after 5 mins by spectrophotometry
[31] = Binding affinity to Mg2+ using MgSO4 at 20 uM after 5 mins by spectrophotometry
[32] = biological target: Amyloid-beta precursor protein (Homo sapiens) (UniProt P05067); experiment: Inhibition of self-induced amyloid beta (1 to 40) (unknown origin) fibril aggregation at 100 uM after 7 to 18 days by turbidity assay
[33] = Induction of preformed Cu2+-induced amyloid beta (1 to 40) fibril aggregation at 100 uM after 4 to 12 days by turbidity assay relative to control
[34] = Binding affinity to Cu2+ using CuCl2 at 10 uM after 5 mins by spectrophotometric titration assay

| Compound | Ka [2] | logKa [4] | Ratio IC50 [6] | Activity [7] | Activity [9] | Activity [10] | IC50 [12] | Activity [13] | Activity [14] | Activity [16] | IC50 [17] | Activity [18] | inhibition [19] | Activity [20] | Activity [21] | Activity [22] | Activity [23] | LC50 at 48 h [24] | Activity [26] | Ratio IC50 [28] | other results |
| --- | --- | --- | --- | --- | --- | --- | --- | --- | --- | --- | --- | --- | --- | --- | --- | --- | --- | --- | --- | --- | --- |
| Oc1cccc(CNc2ccccc2O)c1 | 1.55 ×10⁵ /M | 13.1 | 1.4 | 20.3% | 45% | 17.2% | 5.87 µM | inactive | 6.65% | inactive | 1.24 µM | 5.4 a.u. | 51.1% | 8.2% | Active | 11.7% | inactive | 180 µM | 144% | 3 | Ratio IC50 [1]: 2; inhibition [3]: Active; Activity [5]: 47%; inhibition [8]: Active; inhibition [11]: Active; Activity [15]: Active; inhibition [25]: 46%; Activity [27]: Active; Activity [29]: 117%; Activity [30]: inactive; Activity [31]: inactive; inhibition [32]: Active |
| Oc1ccc(/N=C/c2c(O)ccc3ccccc23)c(O)c1 | 2.46 ×10⁵ /M | 14.3 | 0.5 | 11% | 7.85% | 10.9% | 13.5 µM | inactive | 6.21% | inactive | 3.15 µM | 0.03 a.u. | 98.5% | 6.51% | Active | 14.4% | inactive | 265 µM | 46% | 1.3 | inhibition [3]: Active; Activity [5]: 47%; inhibition [8]: Active; Activity [33]: Active; inhibition [25]: Active; Activity [27]: Active; Activity [34]: Active; Activity [29]: 47.3%; Activity [30]: inactive; Activity [31]: inactive; inhibition [32]: Active |
| O=C1O[C@H]([C@@H](O)CO)C(O)=C1O [ASCORBIC ACID] |  |  | 0.02 |  |  |  | 12.8 µM |  |  |  | 62.2 µM |  |  |  |  |  |  |  |  | 1.4 |  |
| Oc1ccc(/C=C/c2cc(O)cc(O)c2)cc1 [RESVERATROL] | 1.65 ×10⁵ /M | 6.7 |  | 24.1% | 25.9% | 16.1% | 17.8 µM | Active | 4.25% | inactive | 1.7 µM | 11.2 a.u. | 9% | 7.48% | Active | 100% | inactive | 274 µM | 239% |  | inhibition [11]: inactive; Activity [29]: 144%; Activity [30]: inactive; Activity [31]: inactive |
| Oc1ccc(CNc2ccccc2O)cc1 | 3.27 ×10⁵ /M | 12.8 | 1.2 | 10.1% | 21.8% | 11% | 6.27 µM | inactive | 3.7% | inactive | 1.38 µM | 6.8 a.u. | 47.3% | 4.34% | Active | 8.37% | inactive | 211 µM | 152% | 2.8 | Ratio IC50 [1]: 2; inhibition [3]: Active; Activity [5]: 47%; inhibition [8]: Active; inhibition [11]: Active; Activity [15]: Active; inhibition [25]: Active; Activity [27]: Active; Activity [29]: 106%; Activity [30]: inactive; Activity [31]: inactive; inhibition [32]: Active |
| Oc1ccc(CNc2ccccc2O)cc1O | 3.55 ×10⁵ /M | 12.6 | 2.8 | 9.28% | 19.5% | 12.1% | 3.05 µM | inactive | 7.49% | inactive | 0.61 µM | 4 a.u. | 59.9% | 9.17% | Active | 12.8% | inactive | 354 µM | 76.5% | 5.8 | Ratio IC50 [1]: 2; inhibition [3]: Active; Activity [5]: 47%; inhibition [8]: Active; Activity [15]: Active; Activity [33]: Active; inhibition [25]: Active; Activity [27]: Active; Activity [29]: 69.7%; Activity [30]: inactive; Activity [31]: inactive; inhibition [32]: Active |
